In the NIST ThermoML archive (doi:10.1021/je060271a):

Settings: Liquid, Vibrating tube method

CCCC(=O)OCC(COC(=O)CCC)(COC(=O)CCC)COC(=O)CCC [pentaerythritol tetrabutyrate]
Settings | mass density [kg/m3]
323.14 K, 26626 kPa | 1043
323.14 K, 26670 kPa | 1042.8
323.14 K, 26714 kPa | 1042.8
323.14 K, 26767 kPa | 1043
323.14 K, 26810 kPa | 1043
323.14 K, 26863 kPa | 1043
323.14 K, 26908 kPa | 1043.1
323.14 K, 26952 kPa | 1043.1
323.14 K, 26996 kPa | 1043.1
323.14 K, 27582 kPa | 1043.5
323.14 K, 27638 kPa | 1043.5
323.14 K, 27684 kPa | 1043.6
323.14 K, 27740 kPa | 1043.6
323.14 K, 27788 kPa | 1043.6
323.14 K, 27834 kPa | 1043.6
323.14 K, 27946 kPa | 1043.8
323.14 K, 28044 kPa | 1043.9
323.14 K, 28300 kPa | 1044
323.14 K, 28359 kPa | 1044
323.14 K, 28792 kPa | 1044.3
323.14 K, 28843 kPa | 1044.3
323.14 K, 28902 kPa | 1044.3
323.14 K, 28941 kPa | 1044.3
323.14 K, 29012 kPa | 1044.3
323.14 K, 29875 kPa | 1044.9
323.14 K, 29913 kPa | 1045
323.14 K, 29948 kPa | 1045.1
323.14 K, 29992 kPa | 1045
323.14 K, 30269 kPa | 1045.3
323.14 K, 30315 kPa | 1045.2
323.14 K, 30353 kPa | 1045.4
323.14 K, 30391 kPa | 1045.3
323.14 K, 30431 kPa | 1045.3
323.14 K, 30476 kPa | 1045.2
323.14 K, 30514 kPa | 1045.3
323.14 K, 32076 kPa | 1046.4
323.14 K, 32110 kPa | 1046.4
323.14 K, 32957 kPa | 1046.8
323.14 K, 33000 kPa | 1046.9
323.14 K, 33035 kPa | 1046.8
323.14 K, 33078 kPa | 1046.9
323.14 K, 33115 kPa | 1046.9
323.14 K, 33350 kPa | 1047
323.14 K, 33751 kPa | 1047.3
323.14 K, 33878 kPa | 1047.3
323.14 K, 33919 kPa | 1047.4
323.14 K, 33970 kPa | 1047.4
323.15 K, 3349 kPa | 1027.1
323.15 K, 3467.5 kPa | 1027.3
323.15 K, 3496.8 kPa | 1027.3
323.15 K, 3562.1 kPa | 1027.3
323.15 K, 5277.4 kPa | 1028.8
323.15 K, 5278.3 kPa | 1028.7
323.15 K, 5281.4 kPa | 1028.8
323.15 K, 5284.5 kPa | 1028.8
323.15 K, 5287 kPa | 1028.7
323.15 K, 5288.9 kPa | 1028.7
323.15 K, 5289.7 kPa | 1028.8
323.15 K, 5290.8 kPa | 1028.8
323.15 K, 5291.3 kPa | 1028.8
323.15 K, 5291.6 kPa | 1028.8
323.15 K, 5292 kPa | 1028.8
323.15 K, 5292.5 kPa | 1028.8
323.15 K, 5292.8 kPa | 1028.8
323.15 K, 5293.4 kPa | 1028.7
323.15 K, 5293.7 kPa | 1028.9
323.15 K, 5293.9 kPa | 1028.8
323.15 K, 5294 kPa | 1028.7
323.15 K, 5294.2 kPa | 1028.9
323.15 K, 5295.1 kPa | 1028.9
323.15 K, 5295.9 kPa | 1029
323.15 K, 5296.1 kPa | 1028.7
323.15 K, 5296.6 kPa | 1028.7
323.15 K, 5297 kPa | 1028.8
323.15 K, 5297.2 kPa | 1028.8
323.15 K, 5297.3 kPa | 1028.9
323.15 K, 5297.5 kPa | 1028.8
323.15 K, 5297.8 kPa | 1028.8
323.15 K, 5324.7 kPa | 1028.9
323.15 K, 5344.4 kPa | 1028.9
323.15 K, 5347.8 kPa | 1028.8
323.15 K, 5370.7 kPa | 1028.8
323.15 K, 5375.9 kPa | 1028.8
323.15 K, 5394.4 kPa | 1028.9
323.15 K, 5418.8 kPa | 1029
323.15 K, 5422.4 kPa | 1028.9
323.15 K, 5445.4 kPa | 1028.9
323.15 K, 5446.8 kPa | 1028.9
323.15 K, 5456 kPa | 1028.9
323.15 K, 5465.5 kPa | 1028.9
323.15 K, 5470.8 kPa | 1029
323.15 K, 5493.7 kPa | 1028.9
323.15 K, 5495.4 kPa | 1028.9
323.15 K, 5499.9 kPa | 1029
323.15 K, 5505.6 kPa | 1028.9
323.15 K, 5511.7 kPa | 1028.8
323.15 K, 5524.8 kPa | 1029
323.15 K, 5529.5 kPa | 1029
323.15 K, 5540.8 kPa | 1028.9
323.15 K, 5549.5 kPa | 1029
323.15 K, 5554.5 kPa | 1029
323.15 K, 5560.3 kPa | 1028.9
323.15 K, 5567.9 kPa | 1028.9
323.15 K, 5573.4 kPa | 1028.9
323.15 K, 5575 kPa | 1029
323.15 K, 5578 kPa | 1029
323.15 K, 5582.5 kPa | 1029
323.15 K, 5586.4 kPa | 1028.9
323.15 K, 5590.4 kPa | 1029.1
323.15 K, 5594.2 kPa | 1029
323.15 K, 5605.6 kPa | 1029
323.15 K, 5630.8 kPa | 1029
323.15 K, 5657.1 kPa | 1029.1
323.15 K, 5683.6 kPa | 1029.1
323.15 K, 5710.2 kPa | 1029.1
323.15 K, 5742 kPa | 1029.1
323.15 K, 5769.2 kPa | 1029.2
323.15 K, 5797 kPa | 1029.2
323.15 K, 5824.3 kPa | 1029.2
323.15 K, 5857.7 kPa | 1029.2
323.15 K, 5886.4 kPa | 1029.2
323.15 K, 5945.6 kPa | 1029.2
323.15 K, 5970.4 kPa | 1029.2
323.15 K, 6001.7 kPa | 1029.3
323.15 K, 6023.4 kPa | 1029.3
323.15 K, 6053.9 kPa | 1029.4
323.15 K, 6080.4 kPa | 1029.4
323.15 K, 6107 kPa | 1029.4
323.15 K, 6138.8 kPa | 1029.4
323.15 K, 6163.7 kPa | 1029.4
323.15 K, 6187.1 kPa | 1029.4
323.15 K, 6215.2 kPa | 1029.6
323.15 K, 6240.1 kPa | 1029.4
323.15 K, 6265 kPa | 1029.5
323.15 K, 6287.3 kPa | 1029.5
323.15 K, 6301.7 kPa | 1029.5
323.15 K, 6311 kPa | 1029.5
323.15 K, 6319.5 kPa | 1029.4
323.15 K, 6327.5 kPa | 1029.6
323.15 K, 6345.8 kPa | 1029.6
323.15 K, 6372.1 kPa | 1029.6
323.15 K, 6398.4 kPa | 1029.7
323.15 K, 6423.8 kPa | 1029.8
323.15 K, 6456.6 kPa | 1029.6
323.15 K, 6483.4 kPa | 1029.6
323.15 K, 6511.5 kPa | 1029.6
